The record followed here is patent US10519162B2, “6,7-dihydropyrazolo[1,5-α]pyrazin-4(5H)-one compounds and their use as negative allosteric modulators of mGluR2 receptors” (Janssen Pharmaceutica NV, priority 2014, dated 2019).

Each structure is given as a SMILES string.

Series [1] addresses T1, human mGlu2 receptor (Homo sapiens, UniProt Q14416).
T1 construct: expressed in transfected cells; host or cells: CHO cells
Put plainly: [35S]GTPγS binding assay (mGluR2 negative allosteric modulation, glutamate ~EC80 60 μM). In kind it is biochemical. The conditions noted are these: for IC50: membranes from CHO cells transfected with human mGlu2 receptor, glutamate ~EC80 (60 μM), pIC50 = −log IC50 (M), read-out: GTPγS-hmGluR2 anGT pIC50 (converted); for Emax: read-out: GTPγS-hmGluR2 anGT Emax. On the procedure:
1) [^35S]GTPγS Binding Assay
[^35S]GTPγS Binding Assay
Total reaction volume was 200 μl. […] Membrane-bound radioactivity was counted in a Topcount.
In general terms: Binding of GTPγS marks nucleotide exchange on a G protein.

Where [2] appears, read: maximal % inhibition relative to the control glutamate response (EC80 glutamate).

T1 sequence (Q14416 19-872): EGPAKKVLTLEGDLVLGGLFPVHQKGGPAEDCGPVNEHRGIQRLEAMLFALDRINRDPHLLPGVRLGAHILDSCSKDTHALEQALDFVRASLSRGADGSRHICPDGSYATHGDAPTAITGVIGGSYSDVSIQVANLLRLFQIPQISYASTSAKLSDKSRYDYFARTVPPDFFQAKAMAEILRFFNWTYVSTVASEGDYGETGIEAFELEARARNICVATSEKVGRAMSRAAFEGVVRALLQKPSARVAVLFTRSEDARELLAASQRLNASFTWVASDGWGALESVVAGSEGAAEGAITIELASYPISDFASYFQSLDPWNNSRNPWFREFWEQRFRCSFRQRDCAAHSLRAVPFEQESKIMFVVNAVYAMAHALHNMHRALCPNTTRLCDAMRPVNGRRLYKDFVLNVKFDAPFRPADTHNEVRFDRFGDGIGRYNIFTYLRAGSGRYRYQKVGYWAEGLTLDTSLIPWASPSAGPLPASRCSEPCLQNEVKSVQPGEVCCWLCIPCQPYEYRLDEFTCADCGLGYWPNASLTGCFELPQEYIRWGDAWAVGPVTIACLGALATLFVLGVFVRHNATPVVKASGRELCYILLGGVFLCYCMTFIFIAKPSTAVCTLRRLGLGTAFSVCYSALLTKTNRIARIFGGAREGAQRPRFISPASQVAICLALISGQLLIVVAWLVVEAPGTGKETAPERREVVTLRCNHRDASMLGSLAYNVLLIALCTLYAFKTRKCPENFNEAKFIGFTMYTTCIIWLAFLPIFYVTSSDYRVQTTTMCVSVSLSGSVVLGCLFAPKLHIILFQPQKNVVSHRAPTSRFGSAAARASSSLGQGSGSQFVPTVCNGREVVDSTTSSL

On to `Cc1cc(C(=O)Nc2cnn3c2C(=O)N(c2ccc(C(F)(F)F)cc2)C[C@@H]3C)cc(CF)n1` (racemic) [Co. No. 209], for which the melting point (commonly the temperature, or range, at which the solid turns liquid) worked out at 157.37 °C.

In turn, `COCC1CN(c2ccc(C(F)(F)F)cc2)C(=O)c2c(NC(=O)c3ccccc3F)cnn21` (single isomer, unassigned) [Co. No. 62b] registered a melting point of 162.51 °C. In addition, the “GTPγS-hmGluR2 anGT Emax” value in series [1] (setting [2]) stood at 66%. Moreover, the IC50 in series [1] was 4.79e-06 M.

On to `COCC1CN(c2ccc(C(F)(F)F)cc2)C(=O)c2c(NC(=O)c3ccc(N)nc3)cnn21` (single isomer, unassigned) [Co. No. 96], for which the melting point was 225.83 °C. Further, in series [1] (setting [2]), the Emax (commonly the size of the effect at its maximum, as opposed to the concentration needed) was found to be 95%. Also, the IC50 in series [1] is 1.45e-06 M.

For `C[C@H]1CN(c2ccc(C(F)(F)F)c(CF)c2)C(=O)c2c(NC(=O)c3ccc(N)nc3)cnn21` [Co. No. 5, 6-Amino-N-[(7S)-5-[3-(fluoromethyl)-4-(trifluoromethyl)phenyl]-7-methyl-4-oxo-6,7-dihydropyrazolo[1,5-a]pyrazin-3-yl]pyridine-3-carboxamide], the Emax in series [1] (setting [2]) was 107%. The IC50 in series [1] was 2.4e-09 M.

For `Cc1cc(N2C[C@H](C)n3ncc(NC(=O)c4ccccc4)c3C2=O)ccc1C(F)(F)F` [Co. No. 7], the melting point came out at 154.53 °C. The Emax in series [1] (setting [2]) was 108%. Besides, the IC50 in series [1] was 2.29e-09 M.

For `Cc1cccc(C(=O)Nc2cnn3c2C(=O)N(c2ccc(C(F)(F)F)cc2)C[C@@H]3C)c1` [Co. No. 9], the melting point was determined as 147.4 °C. In series [1] (setting [2]), the Emax turned out to be 106%. In addition, in series [1], the IC50 was 2.45e-09 M.

As for `COc1ccc(F)cc1C(=O)Nc1cnn2c1C(=O)N(c1ccc(C(F)(F)F)cc1)C[C@@H]2C` [Co. No. 10], the melting point was determined as 204.35 °C. For the same compound, the Emax in series [1] (setting [2]) was 113%. Besides, in series [1], the IC50 was 2.57e-09 M.

For `COc1cc(F)cc(C(=O)Nc2cnn3c2C(=O)N(c2ccc(C(F)(F)F)cc2)C[C@@H]3C)c1` [Co. No. 17], the melting point is 136.53 °C. Further, the Emax in series [1] (setting [2]) came to 114%. Also, in series [1], the IC50 was 3.72e-09 M.

On to `C[C@H]1CN(c2ccc(C(F)(F)F)cc2)C(=O)c2c(NC(=O)c3ccccn3)cnn21` [Co. No. 24], for which, in series [1] (setting [2]), the Emax amounted to 102%. Also, the IC50 in series [1] was 5.89e-09 M.

As for `COc1cccc(F)c1C(=O)Nc1cnn2c1C(=O)N(c1ccc(C(F)(F)F)cc1)C[C@@H]2C` [Co. No. 41], in series [1] (setting [2]), the Emax worked out at 109%. Moreover, in series [1], the IC50 was 1.05e-08 M.

For the compound `COc1nc(N2C[C@H](C)n3ncc(NC(=O)c4ccc(N)nc4)c3C2=O)ccc1Cl` [Co. No. 65], the maximal effect (Emax) in series [1] (setting [2]) turned out to be 111%. Also, the IC50 in series [1] was 2.69e-08 M.

Take `C[C@H]1CN(c2ccc(C(F)(F)F)cc2)C(=O)c2c(NC(=O)c3ncccc3F)cnn21` [Co. No. 67]: in series [1] (setting [2]), the Emax was determined as 102%. In series [1], the IC50 was 2.82e-08 M.

Take `C[C@H]1CN(c2ccc(C(F)(F)F)cc2)C(=O)c2c(NC(=O)c3ccno3)cnn21` [Co. No. 69]: in series [1] (setting [2]), the Emax was found to be 103%. For the same compound, the IC50 in series [1] is 2.95e-08 M.

Consider `C[C@H]1CN(c2ccc(C(F)(F)F)cc2)C(=O)c2c(NC(=O)c3cc(N)[nH]n3)cnn21` [Co. No. 84, 5-Amino-N-[(7S)-7-methyl-4-oxo-5-[4-(trifluoromethyl)phenyl]-6,7-dihydropyrazolo[1,5-a]pyrazin-3-yl]-1H-pyrazole-3-carboxamide], for which, in series [1] (setting [2]), the Emax is 109%. Besides, the IC50 in series [1] was 1.38e-07 M.

Regarding `C[C@H]1CN(c2ccc(C(F)(F)F)cc2)C(=O)c2c(NC(=O)c3ccc(N)nn3)cnn21` [Co. No. 90], in series [1] (setting [2]), the Emax is 97%. The IC50 in series [1] is 2.88e-07 M.

`C[C@H]1CN(c2ccc(C(F)(F)F)cc2)C(=O)c2c(NC(=O)c3ccc(O)nn3)cnn21` [Co. No. 92]: in series [1] (setting [2]), the Emax came out at 101%. Besides, the IC50 in series [1] was 1.26e-06 M.

On to `C[C@H]1CN(c2ccc(C(F)(F)F)cc2)C(=O)c2c(NC(=O)c3ncccn3)cnn21` [Co. No. 98], for which, in series [1] (setting [2]), the Emax was 106%. Also, the IC50 in series [1] was 1.51e-07 M.

For `Cc1cncc(C(=O)Nc2cnn3c2C(=O)N(c2ccc(Cl)cc2)C[C@@H]3C)c1` [Co. No. 131], in series [1] (setting [2]), the Emax worked out at 107%. For the same compound, the IC50 in series [1] was 1.66e-08 M.

With `Cc1cc(C(=O)Nc2cnn3c2C(=O)N(c2ccc(Cl)cc2)C[C@@H]3C)cc(C)n1` [Co. No. 132], in series [1] (setting [2]), the maximal response (Emax) worked out at 112%. Also, in series [1], the IC50 was 8.71e-09 M.

`COCC1CN(c2ccc(C(F)(F)F)c(Cl)c2)C(=O)c2c(NC(=O)c3ccc(N)nc3)cnn21` (centres unmarked) [Co. No. 140]: the melting point was 230.27 °C.

`COCC1CN(c2ccc(C(F)(F)F)c(Cl)c2)C(=O)c2c(NC(=O)c3ccc(N)nc3)cnn21` (centres unmarked) [Co. No. 141] gave a melting point of 230.4 °C.

As for `Cc1nccc(C(=O)Nc2cnn3c2C(=O)N(c2ccc(C(F)(F)F)cc2)C[C@@H]3C)c1C` [Co. No. 154], the Emax in series [1] (setting [2]) was 105%. The IC50 in series [1] is 6.03e-08 M.

Take `Cc1nccc(C(=O)Nc2cnn3c2C(=O)N(c2ccc(C(F)(F)F)c(Cl)c2)C[C@@H]3C)c1C` [Co. No. 155]: in series [1] (setting [2]), the Emax turned out to be 104%. In addition, the IC50 in series [1] was 5.5e-09 M.

For `Cc1cc(C(=O)Nc2cnn3c2C(=O)N(c2ccc(C(F)(F)F)cc2)C[C@@H]3C)c(C)cn1` [Co. No. 157], the Emax in series [1] (setting [2]) turned out to be 106%. In addition, the IC50 in series [1] was 1.86e-08 M.

The compound `C[C@H]1CN(c2ccc(C(F)(F)F)c(CO)c2)C(=O)c2c(NC(=O)c3ccc(N)nc3)cnn21` [Co. No. 165] registered a melting point of 238.83 °C.

`Cc1cnc(NC(C)(C)C)c(C(=O)Nc2cnn3c2C(=O)N(c2ccc(C(F)(F)F)c(Cl)c2)C[C@@H]3C)c1` [Co. No. 167, 2-(tert-Butylamino)-N-[(7S)-5-[3-chloro-4-(trifluoromethyl)phenyl]-7-methyl-4-oxo-6,7-dihydropyrazolo[1,5-a]pyrazin-3-yl]-5-methyl-pyridine-3-carboxamide]: the Emax in series [1] (setting [2]) was found to be 103%. The IC50 in series [1] was 2.82e-07 M.

On to `Cc1cc(C(=O)Nc2cnn3c2C(=O)N(c2ccc(C(F)(F)F)c(Cl)c2)C[C@@H]3C)cnc1NC(C)(C)C` [Co. No. 168, 6-(tert-butylamino)-N-[(7S)-5-[3-chloro-4-(trifluoromethyl)phenyl]-7-methyl-4-oxo-6,7-dihydropyrazolo[1,5-a]pyrazin-3-yl]-5-methyl-pyridine-3-carboxamide], for which the Emax in series [1] (setting [2]) is 105%. Besides, the IC50 in series [1] is 2.88e-08 M.

Regarding `Cc1cc(C(=O)Nc2cnn3c2C(=O)N(c2ccc(C(F)(F)F)c(Cl)c2)C[C@@H]3C)cnc1N` [Co. No. 169, 6-Amino-N-[(7S)-5-[3-chloro-4-(trifluoromethyl)phenyl]-7-methyl-4-oxo-6,7-dihydropyrazolo[1,5-a]pyrazin-3-yl]-5-methyl-pyridine-3-carboxamide], in series [1] (setting [2]), the Emax is 108%. Moreover, the IC50 in series [1] was 5.89e-10 M.

For the compound `C[C@H]1CN(c2ccc(Cl)c(Cl)c2)C(=O)c2c(NC(=O)C(F)(F)F)cnn21` [Co. No. 173, N-[(7S)-5-(3,4-Dichlorophenyl)-7-methyl-4-oxo-6,7-dihydropyrazolo[1,5-a]pyrazin-3-yl]-2,2,2-trifluoro-acetamide], the Emax in series [1] (setting [2]) is 104%. In series [1], the IC50 is 2.29e-08 M.

Regarding `Cc1cnc(N)c(C(=O)Nc2cnn3c2C(=O)N(c2ccc(SC(F)(F)F)cc2)C[C@@H]3C)c1` [Co. No. 207], the melting point stood at 172.9 °C.

Consider `Cc1cc(N2C[C@H](C)n3ncc(NC(=O)c4cccnc4N)c3C2=O)ccc1Cl` [Co. No. 208], for which the melting point was determined as 174.32 °C.
